Counter-ions that a name gives are not always drawn.
What was measured:
[1] = Determination of the solubility in 5% strength aqueous dextrose solution; type: physicochemical; conditions: saline or isotonic, thermodynamic from solid; for solubility thermodynamic at 24 h: room temperature
Protocol: a) Determination of the Solubility:
The test substance is suspended in 5% strength aqueous dextrose solution. This suspension is shaken at room temperature for 24 h. After ultracentrifugation at 224 000 g for 30 min, the supernatant is diluted with DMSO and analysed by HPLC. A two-point calibration plot of the test compound in DMSO is used for quantification.
Agilent 1100 with DAD (G1315A), quat. Pump (G1311A), autosampler CTC HTS PAL, degasser (G1322A) and column thermostat (G1316A); column: Phenomenex Gemini C18, 5 μm, 50 mm×2 mm; temperature: 40° C.; eluent A: water/phosphoric acid pH 2, eluent B: acetonitrile; flow rate: 0.7 ml/min; gradient: 0-0.5 min 85% A, 15% B; ramp 0.5-3 min 10% A, 90% B; 3-3.5 min 10% A, 90% B; ramp 3.5-4 min 85% A, 15% B; 4-5 min 85% A, 15% B.
Agilent 1100 with DAD (G1315A), quat. pump (G1311A), autosampler CTC HTS PAL, degasser (G1322A) and column thermostat (G1316A); column: VDSoptilab Kromasil 100 C18, 3.5 μm, 60 mm×2.1 mm; temperature: 30° C.; eluent A: water+5 ml of perchloric acid/liter, eluent B: acetonitrile; flow rate: 0.75 ml/min; gradient: 0-0.5 min 98% A, 2% B; ramp 0.5-4.5 min 10% A, 90% B; 4.5-6 min 10% A, 90% B; ramp 6.5-6.7 min 98% A, 2% B; 6.7-7.5 min 98% A, 2% B.

[2] = Stability in buffer at various pH values; type: physicochemical
Protocol: b) Stability in Buffer at Various pH Values:
0.3 mg of the test substance is weighed into a 2 ml HPLC vial and 0.5 ml of acetonitrile or acetonitrile/DMSO (9:1) is added. The substance is dissolved by putting the sample vessel in an ultrasonic bath for about 10 seconds. Then 0.5 ml of the respective buffer solution is added, and the sample is again treated in the ultrasonic bath.
pH 2: 0.03 mol of citric acid, 0.061 mol of sodium chloride and 0.0082 mol of hydrochoric acid ad 1 liter of water;
pH 4: 1 liter of Millipore water is adjusted to pH 4.0 with 1 N hydrochloric acid;
pH 5: 0.096 mol of citric acid and 0.2 mol of sodium hydroxide ad 1 liter of water;
pH 6: 0.06 mol of citric acid and 0.16 mol of sodium hydroxide ad 1 liter of water;
pH 7.4: 90.0 g of sodium chloride, 13.61 g of potassium dihydrogen phosphate and 83.35 g of 1 N sodium hydroxide solution are made up to 1 liter with water; this solution is then further diluted 1:10 with Millipore water.
pH 8: 0.013 mol of borax and 0.021 mol of hydrochloric acid ad 1 liter of water.
5 μl portions of the test solution are analyzed by HPLC for their content of unchanged test substance, and of parent substance (A) produced, every hour over a period of 24 hours at 37° C. The percentage areas of the appropriate peaks are used for quantification.
The ratios of the peak areas (F) at the respective time points in relation to the peak areas at the starting time are shown in Table 2 for representative exemplary embodiments: […]

[3] = test system: heart rate of anesthetized rats; experiment: Influence on the heart rate of anesthetized rats; type: in vivo; conditions: maximum decrease in the first 30 min after i.v. bolus of 100 μg/kg of (A) or equivalent dosages; anesthetized male Wistar rats
Protocol: f) Determination of the Influence on the Heart Rate of Anesthetized Rats:
Male Wistar rats with a body weight above 250 g are employed. In the night before the experiment, the animals receive no feed but still have free access to drinking water. Preparation and investigations are carried out under Trapanal® anesthesia (100 mg/kg i.p.). Injection and infusion take place through a catheter in the jugular vein, and the blood pressure is recorded via a catheter in the femoral artery (transducer: Braun, Melsungen). After the preparation, the animals are connected to a continuous infusion of physiological saline solution to compensate fluid losses. Test substance or placebo solution are administered as bolus after an equilibration time of about 1 h. Heart rate and arterial blood pressure are recorded during the equilibration and over a period of at least 30 min after the bolus injection with the aid of a digital evaluation program.
Table 4 lists the maximum heart rate decrease in the first 30 min after an i.v. bolus of 100 μg/kg of the active substance (A) or of equivalent dosages of representative exemplary embodiments: […]

solubility thermodynamic at 24 h [1] [µg/mL]	% test substance after 4 h [F(t = 4 h) × 100/F(t = 0 h)] ([2]; pH 4, 37° C.) [%]	% test substance after 24 h [F(t = 24 h) × 100/F(t = 0 h)] ([2]; pH 4, 37° C.) [%]	% test substance after 4 h [F(t = 4 h) × 100/F(t = 0 h)] ([2]; pH 7.4, 37° C.) [%]	% test substance after 24 h [F(t = 24 h) × 100/F(t = 0 h)] ([2]; pH 7.4, 37° C.) [%]	% test substance after 24 h [F(t = 24 h) × 100/F(t = 0 h)] ([2]; pH 4, 37° C., disodium salt) [%]	% test substance after 24 h [F(t = 24 h) × 100/F(t = 0 h)] ([2]; pH 7.4, 37° C., disodium salt) [%]	solubility at 24 h [1] [µg/mL]	Compound	Heart rate decrease [3] [%]
450	–	–	–	–	–	–	–	N#Cc1c(N)nc(SCc2csc(-c3ccc(Cl)cc3)n2)c(C#N)c1-c1ccc(OCCOC(=O)[C@H](Cc2ccccc2)NC(=O)[C@@H](N)CCCCN)cc1 [Example 18, 2-{4-[2-Amino-6-({[2-(4-chlorophenyl)-1,3-thiazol-4-yl]methyl}sulfanyl)-3,5-dicyanopyridin-4-yl]-phenoxy}ethyl L-lysyl-L-phenylalaninate dihydrochloride]	–
> 500	100	100	68	8	–	–	–	C[C@H](NC(=O)[C@@H](N)CCCNC(=N)N)C(=O)OCCOc1ccc(-c2c(C#N)c(N)nc(SCc3csc(-c4ccc(Cl)cc4)n3)c2C#N)cc1 [Example 14, 2-{4-[2-Amino-6-({[2-(4-chlorophenyl)-1,3-thiazol-4-yl]methyl}sulfanyl)-3,5-dicyanopyridin-4-yl]-phenoxy}ethyl L-arginyl-L-alaninate dihydrochloride]	–
390	–	–	–	–	99	99	–	N#Cc1c(N)nc(SCc2csc(-c3ccc(Cl)cc3)n2)c(C#N)c1-c1ccc(OCCOC(=O)CC[C@H](NC(=O)CCC(=O)O)C(=O)O)cc1 [Example 10, (2S)-5-(2-{4-[2-Amino-6-({[2-(4-chlorophenyl)-1,3-thiazol-4-yl]methyl}thio)-3,5-dicyanopyridin-4-yl]phenoxy}ethoxy)-2-[(3-carboxypropanoyl)amino]-5-oxopentanoic acid disodium salt]	–
> 500	99	98	49	2	–	–	–	C[C@@H](NC(=O)[C@@H](N)CCCCN)C(=O)OCCOc1ccc(-c2c(C#N)c(N)nc(SCc3csc(-c4ccc(Cl)cc4)n3)c2C#N)cc1 [Example 12, 2-{4-[2-Amino-6-({[2-(4-chlorophenyl)-1,3-thiazol-4-yl]methyl}sulfanyl)-3,5-dicyanopyridin-4-yl]-phenoxy}ethyl L-lysyl-D-alaninate dihydrochloride]	–
–	–	–	–	–	–	–	< 0.1	N#Cc1c(N)nc(SCc2csc(-c3ccc(Cl)cc3)n2)c(C#N)c1-c1ccc(OCCO)cc1 [compound (A), 2-amino-6-({[2-(4-chlorophenyl)-1,3-thiazol-4-yl]methyl}thio)-4-[4-(2-hydroxy-ethoxy)phenyl]pyridine-3,5-dicarbonitrile, reference compound]	24
450	–	–	–	–	–	–	–	C[C@H](NC(=O)[C@@H](N)Cc1cnc[nH]1)C(=O)OCCOc1ccc(-c2c(C#N)c(N)nc(SCc3csc(-c4ccc(Cl)cc4)n3)c2C#N)cc1 [Example 15, 2-{4-[2-Amino-6-({[2-(4-chlorophenyl)-1,3-thiazol-4-yl]methyl}sulfanyl)-3,5-dicyanopyridin-4-yl]-phenoxy}ethyl L-histidyl-L-alaninate dihydrochloride]	–
–	100	100	100	100	–	–	–	CC(C)[C@H](NC(=O)CCN)C(=O)OCCOc1ccc(-c2c(C#N)c(N)nc(SCc3csc(-c4ccc(Cl)cc4)n3)c2C#N)cc1 [Example 2, 2-{4-[2-Amino-6-({[2-(4-chlorophenyl)-1,3-thiazol-4-yl]methyl}thio)-3,5-dicyanopyridin-4-yl]-phenoxy}ethyl β-alanyl-L-valinate hydrochloride]	–
> 500	100	100	90	55	–	–	–	CC(C)C[C@H](NC(=O)[C@@H](N)CCCCN)C(=O)OCCOc1ccc(-c2c(C#N)c(N)nc(SCc3csc(-c4ccc(Cl)cc4)n3)c2C#N)cc1 [Example 11, 2-{4-[2-Amino-6-({[2-(4-chlorophenyl)-1,3-thiazol-4-yl]methyl}sulfanyl)-3,5-dicyanopyridin-4-yl]-phenoxy}ethyl L-lysyl-L-leucinate dihydrochloride]	–
> 500	–	–	–	–	–	–	–	N#Cc1c(N)nc(SCc2csc(-c3ccc(Cl)cc3)n2)c(C#N)c1-c1ccc(OCCOC(=O)CNC(=O)[C@@H](N)CCCCN)cc1 [Example 17, 2-{4-[2-Amino-6-({[2-(4-chlorophenyl)-1,3-thiazol-4-yl]methyl}sulfanyl)-3,5-dicyanopyridin-4-yl]-phenoxy}ethyl L-lysylglycinate dihydrochloride]	–
–	100	100	100	100	–	–	–	N#Cc1c(N)nc(SCc2csc(-c3ccc(Cl)cc3)n2)c(C#N)c1-c1ccc(OCCOC(=O)CC[C@H](NC(=O)CCC(=O)O)C(=O)O)cc1 [Example 9, (2S)-5-(2-{4-[2-Amino-6-({[2-(4-chlorophenyl)-1,3-thiazol-4-yl]methyl}thio)-3,5-dicyanopyridin-4-yl]phenoxy}ethoxy)-2-[(3-carboxypropanoyl)amino]-5-oxopentanoic acid]	–
450	100	100	99	55	–	–	–	CC(C)[C@H](NC(=O)[C@@H](N)CCCNC(=N)N)C(=O)OCCOc1ccc(-c2c(C#N)c(N)nc(SCc3csc(-c4ccc(Cl)cc4)n3)c2C#N)cc1 [Example 3, 2-{4-[2-Amino-6-({[2-(4-chlorophenyl)-1,3-thiazol-4-yl]methyl}thio)-3,5-dicyanopyridin-4-yl]-phenoxy}ethyl L-arginyl-L-valinate dihydrochloride]	–
> 500	100	99	24	0	–	–	–	N#Cc1c(N)nc(SCc2csc(-c3ccc(Cl)cc3)n2)c(C#N)c1-c1ccc(OCCOC(=O)CC[C@@H](N)C(=O)NCCN)cc1 [Example 13, 2-{4-[2-Amino-6-({[2-(4-chlorophenyl)-1,3-thiazol-4-yl]methyl}sulfanyl)-3,5-dicyanopyridin-4-yl]-phenoxy}ethyl N-(2-aminoethyl)-D-α-glutaminate dihydrochloride]	–
